Experimental data reported in ChEMBL document CHEMBL4418487, “Max binders as myc modulators and uses thereof” (2017).
Active and inactive are the calls of the source. No cut-off for these calls is given here.

Columns and labels:
[1] = Cytotoxicity against human P493-6 cells with where Myc is in OFF- condition assessed as reduction in cell viability incubated for 3 days by CellTiter-Glo assay; type: cell-based
[2] = Cytotoxicity against human P493-6 cells with where Myc is in ON- condition assessed as reduction in cell viability incubated for 3 days by CellTiter-Glo assay; type: functional, cell-based
[3] = molecular target: Protein max (Homo sapiens) (UniProt P61244); assay: Binding affinity to Max in human P493-6 cells using Bio-MS2 by Western blotting analysis based pull down assay; type: cell-based
Protein max (Homo sapiens), sequence (P61244 whole entry): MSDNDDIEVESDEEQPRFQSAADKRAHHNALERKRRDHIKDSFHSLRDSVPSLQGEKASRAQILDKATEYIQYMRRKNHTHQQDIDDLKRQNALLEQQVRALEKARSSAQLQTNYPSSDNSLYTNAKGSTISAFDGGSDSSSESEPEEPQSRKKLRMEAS

[4] = tested on: NCI-H1963; assay: Cytotoxicity against human NCI-H1963 cells assessed as reduction in cell viability incubated for 3 days by CellTiter-Glo assay; type: functional, cell-based
[5] = species on record: Homo sapiens; assay: Cytotoxicity against human GBM4 cells assessed as reduction in cell viability incubated for 4 days by CellTiter-Glo assay; type: functional, cell-based
[6] = tested on: CA46; assay: Cytotoxicity against human CA46 cells assessed as reduction in cell viability incubated for 3 days by CellTiter-Glo assay; type: functional, cell-based
[7] = tested on: ST486; assay: Cytotoxicity against human ST486 cells assessed as reduction in cell viability incubated for 3 days by CellTiter-Glo assay; type: functional, cell-based
[8] = molecular target: Protein max (Homo sapiens) (UniProt P61244); assay: Binding affinity to Max in human P493-6 cells at 5 to 10 uM using AlexaFluor-tagged compound in presence of 20 uM soluble KI-MS2-008 by Western blotting analysis based target engagement assay; type: cell-based
[9] = molecular target: Protein max (Homo sapiens) (UniProt P61244); assay: Binding affinity to Max in human P493-6 cells using Biotin with streptavidin enrichment by Western blotting analysis based target engagement assay; type: cell-based
[10] = molecular target: Protein max (Homo sapiens) (UniProt P61244); assay: Binding affinity to Max in human P493-6 cells at 5 to 10 uM using AlexaFluor-tagged compound by Western blotting analysis based target engagement assay; type: cell-based
[11] = tested on: Astrocyte; assay: Cytotoxicity against normal human astrocytes assessed as reduction in cell viability incubated for 4 days by CellTiter-Glo assay; type: cell-based; conditions: 96 h
[12] = molecular target: Myc proto-oncogene protein (Homo sapiens) (UniProt P01106); assay: Binding affinity to c-Myc in human P493-6 cells at […] incubated for 30 mins by immunoprecipitation based assay; type: cell-based
Myc proto-oncogene protein (Homo sapiens), sequence (P01106 whole entry): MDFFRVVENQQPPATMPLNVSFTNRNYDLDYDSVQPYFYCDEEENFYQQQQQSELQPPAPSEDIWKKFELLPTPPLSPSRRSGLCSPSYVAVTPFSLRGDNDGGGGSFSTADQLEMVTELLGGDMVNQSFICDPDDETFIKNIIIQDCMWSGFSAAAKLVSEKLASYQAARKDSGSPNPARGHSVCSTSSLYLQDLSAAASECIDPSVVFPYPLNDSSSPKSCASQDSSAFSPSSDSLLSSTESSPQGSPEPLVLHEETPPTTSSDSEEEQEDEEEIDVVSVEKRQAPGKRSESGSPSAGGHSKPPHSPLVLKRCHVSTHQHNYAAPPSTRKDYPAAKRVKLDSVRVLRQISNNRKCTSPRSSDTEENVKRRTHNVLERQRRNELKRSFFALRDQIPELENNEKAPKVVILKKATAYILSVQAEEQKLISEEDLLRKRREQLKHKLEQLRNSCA

[13] = tested on: Homo sapiens; assay: Antitumor activity against Luc-labeled and MYC-driven human T-ALL 4188 cells xenografted in immune-compromised NSG mouse assessed as reduction in tumor volume at 20 uM, iv measured during 2 to 12 days after tumor implantation; type: functional, organism-based
[14] = Toxicity in healthy mouse assessed as effect on body weight at 0.731 mg/kg, po dosed daily using cyclodextrin vehicle for 7 days measured on each day; type: organism-based; conditions: in vivo, 168 h
[15] = molecular target: Protein max (Homo sapiens) (UniProt P61244); assay: Binding affinity to Max in human P493-6 cells assessed as effect on Max interactome by measuring perturbation in Rcor1 level at […] incubated for 30 mins by immunoprecipitation based assay; type: cell-based
[16] = molecular target: Protein max (Homo sapiens) (UniProt P61244); assay: Binding affinity to Max in human P493-6 cells assessed as decrease in Myc protein levels at 10 uM in presence of 10 uM proteasome inhibitor MG132; type: cell-based
[17] = Drug level in plasma (unknown origin) at 0.2 to 10 uM by serial dilution-lowest detection limit test; type: ADME, cell-free
[18] = Renal toxicity in healthy mouse assessed as induction of kidney damage at 0.364 mg/kg, po dosed daily using cyclodextrin vehicle for 7 days by H and E staining histological analysis; type: organism-based; conditions: in vivo, 168 h
[19] = Toxicity in healthy mouse assessed as effect on body weight at 0.364 mg/kg, po dosed daily using cyclodextrin vehicle for 7 days measured on each day; type: organism-based; conditions: in vivo, 168 h
[20] = Toxicity in healthy mouse assessed as effect on behavior at 0.364 mg/kg, po dosed daily using cyclodextrin vehicle for 7 days measured on each day; type: organism-based; conditions: in vivo, 168 h
[21] = molecular target: Protein max (Homo sapiens) (UniProt P61244); assay: Binding affinity to Max in human P493-6 cells assessed as effect on Max interactome by measuring perturbation in Nacc2 level at […] incubated for 30 mins by immunoprecipitation based assay; type: cell-based
[22] = molecular target: Protein max (Homo sapiens) (UniProt P61244); assay: Induction of recombinant human Max homodimer stabilization at 10 uM pre-incubated for 1 hr with protein and measured after 18 hrs
[23] = molecular target: Protein max (Homo sapiens) (UniProt P61244); assay: Induction of Max homodimer stabilization in human P493-6 cells assessed as increase in Max homodimer binding to DNA by electrophoretic mobility shift assay; type: cell-based
[24] = Toxicity in healthy mouse assessed as effect on behavior at 0.731 mg/kg, po dosed daily using cyclodextrin vehicle for 7 days measured on each day; type: organism-based; conditions: in vivo, 168 h
[25] = Drug level in mouse plasma at 100 to 200 uM, po dosed using cyclodextrin vehicle by LC/MS analysis; type: ADME, organism-based; conditions: in vivo
[26] = Drug level in mouse plasma at 20 uM, iv by LC/MS analysis; type: ADME, organism-based; conditions: in vivo
[27] = molecular target: Protein max (Homo sapiens) (UniProt P61244); assay: Binding affinity to Max in human P493-6 cells assessed as induction of perturbation in transcriptional programs after 45 mins; type: cell-based
[28] = molecular target: Protein max (Homo sapiens) (UniProt P61244); assay: Binding affinity to Max in human P493-6 cells assessed as decrease in Myc transcript levels by qPCR analysis; type: cell-based
[29] = molecular target: Protein max (Homo sapiens) (UniProt P61244); assay: Binding affinity to Max in human P493-6 cells assessed as effect on Max interactome by measuring perturbation in Yaf2 level at […] incubated for 30 mins by immunoprecipitation based assay; type: cell-based
[30] = tested on: Homo sapiens; assay: Antitumor activity against Luc-labeled and MYC-driven human T-ALL 4188 cells xenografted in immune-compromised NSG mouse assessed as reduction in tumor volume at 10 mg/ml dosed in corn oil every other day during day 2 to 16 after tumor implantation; type: functional, organism-based
[31] = tested on: Homo sapiens; assay: Antitumor activity against Luc-labeled and MYC-driven human T-ALL 4188 cells xenografted in immune-compromised NSG mouse assessed as reduction in tumor volume using tumor cells pre-treated with 20 uM compound for 24 hrs; type: functional
[32] = Toxicity in healthy mouse assessed as effect on liver at 0.364 mg/kg, po dosed daily using cyclodextrin vehicle for 7 days by H and E staining histological analysis; type: organism-based; conditions: in vivo, 168 h
[33] = molecular target: c-Myc/Max (Homo sapiens) (UniProt P01106+P61244); assay: Inhibition of c-Myc/Max heterodimer interaction in human P493-6 cells by electrophoretic mobility shift assay; type: cell-based
[34] = Hepatic toxicity in healthy mouse assessed as induction of liver damage at 0.731 mg/kg, po dosed daily using cyclodextrin vehicle for 7 days by H and E staining histological analysis; type: organism-based; conditions: in vivo, 168 h
[35] = Drug level in mouse plasma at 20 uM, po by LC/MS analysis; type: ADME, organism-based; conditions: in vivo
[36] = molecular target: Protein max (Homo sapiens) (UniProt P61244); assay: Binding affinity to Max in human P493-6 cells assessed as decrease in Myc protein levels; type: cell-based
[37] = molecular target: Protein max (Homo sapiens) (UniProt P61244); assay: Binding affinity to Max in human P493-6 cells at […] incubated for 30 mins by immunoprecipitation based assay; type: cell-based
[38] = Toxicity in healthy mouse assessed as effect on liver at 0.731 mg/kg, po dosed daily using cyclodextrin vehicle for 7 days by H and E staining histological analysis; type: organism-based; conditions: in vivo, 168 h
[39] = molecular target: Protein max (Homo sapiens) (UniProt P61244); assay: Binding affinity to Max in human P493-6 cells assessed as effect on Max interactome by measuring perturbation in Mxd4 level at […] incubated for 30 mins by immunoprecipitation based assay; type: cell-based
[40] = Renal toxicity in healthy mouse assessed as induction of kidney damage at 0.731 mg/kg, po dosed daily using cyclodextrin vehicle for 7 days by H and E staining histological analysis; type: organism-based; conditions: in vivo, 168 h
[41] = molecular target: Protein max (Homo sapiens) (UniProt P61244); assay: Binding affinity to Max in human P493-6 cells assessed as effect on Max interactome by measuring perturbation in Atg16l1 level at […] incubated for 30 mins by immunoprecipitation based assay; type: cell-based
[42] = molecular target: Protein max (Homo sapiens) (UniProt P61244); assay: Binding affinity to Max in human P493-6 cells assessed as effect on Max interactome by measuring perturbation in Myc level at […] incubated for 30 mins by immunoprecipitation based assay; type: cell-based
[43] = Retention time of the compound by LC/MS analysis; type: physicochemical
[44] = molecular target: Protein max (Homo sapiens) (UniProt P61244); assay: Binding affinity to Max in human P493-6 cells using 2 mg protein by immunoblotting based pull down assay; type: cell-based
[45] = molecular target: Myc proto-oncogene protein (Homo sapiens) (UniProt P01106); assay: Binding affinity to MYC in human P493-6 cells using 2 mg protein by immunoblotting based pull down assay; type: cell-based

Structure (SMILES): CCOC(=O)CN1Cc2ccccc2[C@@H]2OC(c3ccccc3)=N[C@]2(Cc2ccccc2)C1=O
- IC50 ([1]; Homo sapiens, P493-6, 72 h): > 50 µM

Structure (SMILES): O=C1N(CCS(=O)(=O)c2ccccc2)Cc2ccccc2[C@@H]2OC(c3ccc(OCCCO)cc3)=N[C@]12Cc1ccccc1
- IC50 [1]: > 50 µM

Structure (SMILES): O=C1N(CCS(=O)(=O)c2ccccc2)Cc2cc(Cl)ccc2[C@@H]2OC(c3ccccc3)=N[C@]12Cc1ccccc1
- IC50 ([2]; Homo sapiens, P493-6, 72 h): 25.8 µM
- IC50 ([1]; Homo sapiens, P493-6, 72 h): > 50 µM

Structure (SMILES): CC(=O)N1Cc2ccccc2[C@@H]2OC(c3ccccc3)=N[C@]2(Cc2ccccc2)C1=O
- IC50 ([2]; Homo sapiens, P493-6, 72 h): 19.3 µM
- IC50 ([1]; Homo sapiens, P493-6, 72 h): > 50 µM

Structure (SMILES): O=C1N(CCS(=O)(=O)c2ccccc2)Cc2ccccc2[C@@H]2OC(c3ccc(OCCCO)cc3)=N[C@]12Cc1ccccc1 (racemic) [listing 1 of 2 here]
- Activity [3]: Active
- Activity [4]: Active
- Activity [5]: Active
- Activity [6]: Active
- Activity [7]: Active

Structure (SMILES): CCN(CC(=O)NCCNC(=O)CN1Cc2ccccc2[C@@H]2OC(c3ccccc3)=N[C@]2(Cc2ccccc2)C1=O)C(=O)CCC1(C)N=N1
- Activity [8]: inactive
- Activity [9]: Active
- Activity [10]: Active

Structure (SMILES): O=C1NCc2ccccc2[C@@H]2OC(c3ccccc3)=N[C@]12Cc1ccccc1
- IC50 ([1]; Homo sapiens, P493-6, 72 h): > 50 µM

Structure (SMILES): C=CCN1Cc2ccccc2[C@@H]2OC(c3ccccc3)=N[C@]2(Cc2ccccc2)C1=O
- IC50 ([1]; Homo sapiens, P493-6, 72 h): > 50 µM

Structure (SMILES): O=C1N(CCS(=O)(=O)c2ccccc2)Cc2ccccc2[C@@H]2OC(c3ccc(OCCCO)cc3)=N[C@]12Cc1ccccc1 (racemic) [listing 2 of 2 here]
- IC50 [2]: 6.8 to 14.5 µM
- Activity [11]: Non-Toxic
- IC50 ([1]; Homo sapiens, P493-6, 72 h): 50 to 58.1 µM

Structure (SMILES): O=C(c1ccccc1)N1Cc2ccccc2[C@@H]2OC(c3ccccc3)=N[C@]2(Cc2ccccc2)C1=O
- IC50 ([2]; Homo sapiens, P493-6, 72 h): > 50 µM
- IC50 ([1]; Homo sapiens, P493-6, 72 h): > 50 µM

Structure (SMILES): O=C1N(CCS(=O)(=O)c2ccccc2)Cc2ccccc2[C@@H]2OC(c3ccccc3)=N[C@]12Cc1ccccc1
- Activity [12]: Active
- Activity [13]: Active
- Activity [14]: Non-Toxic
- Activity [15]: Active
- Activity [16]: inactive
- Drug uptake [17]: Active
- Activity [18]: Non-Toxic
- Activity [19]: Non-Toxic
- Activity [20]: Non-Toxic
- Activity [21]: Active
- Activity [22]: Active
- Activity [23]: Dose-dependent effect
- Activity [24]: Non-Toxic
- Drug uptake [25]: Active
- Drug uptake [26]: Active
- Activity [27]: Active
- Activity [28]: Active
- Activity [29]: Active
- Activity [30]: Active
- Activity [31]: Active
- Activity [32]: Non-Toxic
- inhibition [33]: inactive
- Activity [34]: Non-Toxic
- Drug uptake [35]: Not Active
- Activity [36]: Dose-dependent effect
- Activity [37]: Active
- Activity [38]: Non-Toxic
- Activity [39]: Active
- Activity [40]: Non-Toxic
- IC50 ([1]; Homo sapiens, P493-6, 72 h): > 50 µM
- Activity [41]: Active
- Activity [42]: Active
- Retention_time [43]: 9 min

Structure (SMILES): O=C(O)CN1Cc2ccccc2[C@@H]2OC(c3ccccc3)=N[C@]2(Cc2ccccc2)C1=O
- IC50 ([1]; Homo sapiens, P493-6, 72 h): > 50 µM

Structure (SMILES): NCCOCCOCCNC(=O)CN1Cc2ccccc2[C@@H]2OC(c3ccccc3)=N[C@]2(Cc2ccccc2)C1=O
- Activity [44]: Active
- Activity [45]: Active
